{
  "source": "patent US20150283127A1",
  "about": "“SAQUINAVIR-NO FOR IMMUNOMODULATION” (ONCONOX APS, priority 2012, published 2015)",
  "key": {"SCC": {"tested_on": "SCC", "assay": "IFN-g and IL-17 release from rat spinal cord infiltrating cells (SCC)", "format": "cell-based", "conditions": "unstimulated SCC isolated at the peak of EAE", "text": "Experimental animals (C57BL/6 mice, BALB/c mice and Dark Agouti rats) were obtained from the Animal House Facility of the Institute for Biological Research “Sinisa Stanković”, Belgrade, Serbia. Spleen cells (SPC) were isolated from murine spleens and lymph node cells (LNC) were obtained from rat cervical lymph nodes of untreated animals. Draining lymph node cells (DLNC) were obtained from popliteal lymph nodes 8-10 days after immunization of rats with myelin basic protein (guinea pig MBP, kind gift from professor Alexander Fluegel, University of Goettingen, Germany) and complete Freund's adjuvant (CFA, Difco, Detroit, Mich.). […] Obtained purity of CD4 population was more than 97% as determined by flow cytometry. […]\nCytokine concentration in cell culture supernatants was determined by sandwich ELISA using MaxiSorp plates (Nunc, Rochild, Denmark) and anti-cytokine paired antibodies according to the manufacturer's instructions. Samples were analyzed in duplicate for murine/rat IL-17, murine IL-10, murine TNF, murine IL-4 (eBioscience), murine IFN-γ, rat IFN-γ, rat IL-4 (R&D, Minneapolis, Minn.), rat IL-10 and rat TNF (BD Biosciences). The results were calculated using standard curves made on the basis of known concentrations of the appropriate recombinant cytokines.\nNext, we determined the influence of Saq-NO on encephalitogen-specific generation of IFN-g and IL-17. […]"}, "rat LNC": {"tested_on": "rat LNC", "assay": "Viability of rat LNC (MTT mitochondrial activity assay)", "format": "cell-based", "conditions": "ConA, 24 hours, difference not statistically significant", "text": "Experimental animals (C57BL/6 mice, BALB/c mice and Dark Agouti rats) were obtained from the Animal House Facility of the Institute for Biological Research “Sinisa Stanković”, Belgrade, Serbia. Spleen cells (SPC) were isolated from murine spleens and lymph node cells (LNC) were obtained from rat cervical lymph nodes of untreated animals. Draining lymph node cells (DLNC) were obtained from popliteal lymph nodes 8-10 days after immunization of rats with myelin basic protein (guinea pig MBP, kind gift from professor Alexander Fluegel, University of Goettingen, Germany) and complete Freund's adjuvant (CFA, Difco, Detroit, Mich.). The organs were mechanically disrupted, passed through 40-μm nylon mesh filter and the resulting suspension was collected by centrifugation. Red blood cells from single cell suspensions obtained from spleens were lysed using RBC Lysis Buffer (eBioscience, San Diego, Calif.). […] Obtained purity of CD4 population was more than 97% as determined by flow cytometry. […]\nIn order to assess the viability of SPC, LNC, DLNC and SCC by mitochondrial activity assay we used the mitochondrial-dependent reduction of 3-(4,5-dimethylthiazol-2-yl)-2,5-[…] bromide (MTT) to formazan. […] The absorbances in MTT assay were measured at […], with a correction at 690 nm, using an automated microplate reader (LKB 5060-006, LKB, Vienna, Austria)."}, "[1]": {"tested_on": "experimental autoimmune uveoretinitis (EAU)", "assay": "Experimental autoimmune uveoretinitis (EAU) in the Wistar rat, histology", "format": "in vivo", "protocol": "Female Wistar Rats n=28 (8 weeks-old) were purchased from Pasteur Institute (Algiers, Algeria). These rats were acclimated to their new environment for one week before the start of experiments and kept under normal conditions with a 12 h dark/light cycle and free access to food and water.\nThese animals were divided into four groups:\nControl group (n=6) it consisted in non treated animals\nVehicle group (n=6) received a daily intraperitoneal injection of DMSO at 20% starting from the day of immunization.\nRetinal crude extract immunized rats (referred to as EAU group n=8) received a single subcutaneous injection of 200 μL with Retinal Crude Extract emulsified in complete Freund's adjuvant; CFA (v/v) and were left untreated.\nSaqNO (reference) treated rats (n=8) they received a daily intraperitoneal injection of SaqNO at 10 μg/kg starting from the day of immunization.\nFresh bovine eyes (n=20) were used in the experiments. They were cut just in posterior to the ora serrata, the vitreous was then removed without causing retinal detachment. The retinas were removed carefully and put in PBS, pH 7.4. They were then subjected to three successive thermal shock (−20° C. and +37°) in order to release retinal antigens. The retinal crude extract was obtained after a centrifugation at 4000 rpm for 15 min and conserved at −20° C. until further utilization.\n[…]. In parallel, all rats from each group were also sacrificed.\nFor histopathological analysis, eyes were enucleated from each group and fixed in 10% phosphate-buffered formaldehyde. Tissue sections of 5 μm thickness were stained with hematoxylin and eosin (H&E). Sections were examined using a standard microscope (Zeiss) and pictures were taken using a digital camera at ×40 resolution Histological criteria were based on the degree of architectural changes. The histological scores were assessed semi-quantitatively by microscopic examination as follows:\nNo morphological changes, 0; minimal morphological changes of the outer nuclear layer (ONL) in retina, 1; atrophy of INL, 2; disappearance of INL, 3; and damage of total retinal layers, 4."}, "murine CD4+ cells": {"tested_on": "murine CD4+ cells", "assay": "Viability of murine CD4+ cells", "format": "cell-based, mouse", "conditions": "24 hours; effect less than on cytokine generation", "protocol": "In order to assess the viability of SPC, LNC, DLNC and SCC by mitochondrial activity assay we used the mitochondrial-dependent reduction of 3-(4,5-dimethylthiazol-2-yl)-[…] (MTT) to formazan. At the end of appropriate treatments, SPC and LNC were collected in tubes, spun down, supernatants removed and the cell pellets dissolved in […] MTT (Sigma-Aldrich) solution. Incubation with MTT lasted for 30 minutes at 37° C. and cells were centrifuged once more. DMSO was added to the pellets to dissolve the formazan crystals. The absorbances in MTT assay were measured at […], with a correction at 690 nm, using an automated microplate reader (LKB 5060-006, LKB, Vienna, Austria).\nCD4+ cells were purified from C57BL/6 SPC and stimulated with anti-CD3 and anti-CD28 antibodies in the presence of various concentrations of Saq-NO for 24 hours. The influence of Saq-NO on cytokine generation was compared to its influence on CD4+ cell viability and to the influence of Saq on the same parameters. […] Thus, Saq-NO directly affects T cell cytokine production."}, "spleen cells": {"tested_on": "spleen cells", "conditions": "ex vivo, cited from earlier work"}},
  "data": [
    {"smiles": "CC(C)(C)NC(=O)C1C[C@@H]2CCCC[C@@H]2CN1CC(O[N+](=O)[O-])[C@H](Cc1ccccc1)NC(=O)C(CC(N)=O)NC(=O)c1ccc2ccccc2n1", "note": "(stereo partly drawn) [Saq-NO, nitric ester of Saquinavir]", "values": [
      {"measurement": "IFN-g and IL-17 release", "setting": "SCC", "value": "potently inhibited"},
      {"measurement": "LNC viability", "setting": "rat LNC", "value": "affected only with the highest dose"},
      {"measurement": "Uveitis clinical score", "setting": "[1]; 10 μg/kg daily, P<0.05", "value": "improved significantly"},
      {"measurement": "Histological structure of retinal tissue", "setting": "[1]; 10 μg/kg i.p. daily from immunization, day 14", "value": "ameliorated significantly"},
      {"measurement": "Histopathological scores", "setting": "[1]; 10 μg/kg, P<0.05", "value": "ameliorated"},
      {"measurement": "Development of EAU", "setting": "[1]; prophylactic treatment", "value": "prevents development of EAU"},
      {"measurement": "CD4+ cell viability", "setting": "murine CD4+ cells", "value": "statistically significantly inhibited"}
    ]},
    {"smiles": "CC(C)(C)NC(=O)[C@@H]1C[C@@H]2CCCC[C@@H]2CN1C[C@@H](O)[C@H](Cc1ccccc1)NC(=O)[C@H](CC(N)=O)NC(=O)c1ccc2ccccc2n1", "note": "[Saq, (2S)—N-[(2S,3R)-4-[(3S)-3-(tert-butylcarbamoyl)-decahydroisoquinolin-2-iy]-3-hydroxy-1-phenylbutan-2-il]-2-(quinolin-2-ylformamido)butanediamide, reference compound]", "values": [
      {"measurement": "IL-1 beta, IL-10 and TNF-alpha production", "setting": "spleen cells; in vivo exposure", "value": "not modified"},
      {"measurement": "IFN-gamma and IL-2 secretion by spleen cells vs control mice", "setting": "spleen cells; mice previously treated", "value": "secreted more"}
    ]}
  ]
}
